In test [1] the target is T1, recombinant human AXL expressed in live cells (HEK, AXL-Nanoluc fusion vector) (Homo sapiens, UniProt P30530).
T1 construct: host or cells: HEK
T1 sequence (P30530 26-894): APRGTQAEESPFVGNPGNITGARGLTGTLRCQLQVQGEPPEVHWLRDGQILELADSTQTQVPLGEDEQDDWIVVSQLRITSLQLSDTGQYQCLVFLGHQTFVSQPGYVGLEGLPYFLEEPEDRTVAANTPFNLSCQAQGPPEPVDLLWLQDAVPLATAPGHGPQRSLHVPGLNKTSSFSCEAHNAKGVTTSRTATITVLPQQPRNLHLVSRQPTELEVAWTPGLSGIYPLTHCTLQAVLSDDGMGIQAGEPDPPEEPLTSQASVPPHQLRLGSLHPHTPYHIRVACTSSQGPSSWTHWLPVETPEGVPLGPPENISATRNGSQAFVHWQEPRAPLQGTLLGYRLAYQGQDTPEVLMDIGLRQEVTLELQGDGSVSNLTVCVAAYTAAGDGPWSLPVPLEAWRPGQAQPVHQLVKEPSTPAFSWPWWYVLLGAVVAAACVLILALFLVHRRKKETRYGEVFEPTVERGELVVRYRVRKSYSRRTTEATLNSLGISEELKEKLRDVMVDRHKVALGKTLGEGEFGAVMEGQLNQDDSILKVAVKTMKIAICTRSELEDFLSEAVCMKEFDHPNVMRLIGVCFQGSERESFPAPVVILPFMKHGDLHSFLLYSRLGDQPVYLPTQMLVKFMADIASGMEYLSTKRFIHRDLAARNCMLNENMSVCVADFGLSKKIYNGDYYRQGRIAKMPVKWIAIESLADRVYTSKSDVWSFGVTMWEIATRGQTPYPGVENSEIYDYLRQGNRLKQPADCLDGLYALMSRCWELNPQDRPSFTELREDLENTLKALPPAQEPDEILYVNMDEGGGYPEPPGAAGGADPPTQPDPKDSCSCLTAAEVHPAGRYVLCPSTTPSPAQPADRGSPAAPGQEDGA
The test is described as follows: Assay 3 AXL cellular target engagement (NanoBRET TE) assay. It counts as cell-based. As to the method: Assay 3—AXL Cellular Target Engagement (TE) Assay
Compound affinities for recombinant human AXL expressed in live cells were assessed via the Promega NanoBRET TE assay technology. Human Embryonic Kidney (HEK) cells were transiently transfected with the AXL-Nanoluc fusion vector (Promega Cat NV1071) using Fugene HD reagent (Promega E2311). […] Incubations were conducted for 2 h at 37° C., after which 20 μl NanoGlo substrate/inhibitor mix (Promega N2161) was added to each well for 2-3 min. The plate was then read on a BMG Pherastar FSX using a NanoBRET filter to record donor emission at 450 nm and acceptor fluorophore emission at 610 nm. From this the BRET ratio (acceptor 610 nm/donor 450 nm) for each data point was calculated.
In general terms: BRET reads energy transfer from a luciferase to a nearby fluorophore.

In test [2] the target is T2, Ba/F3 Pro B-cell line expressing BCR-human AXL kinase domain fusion protein (Homo sapiens, UniProt P30530).
T2 construct: P11274 (Breakpoint cluster region protein)
T2 sequence (P30530 536-807 limits assumed): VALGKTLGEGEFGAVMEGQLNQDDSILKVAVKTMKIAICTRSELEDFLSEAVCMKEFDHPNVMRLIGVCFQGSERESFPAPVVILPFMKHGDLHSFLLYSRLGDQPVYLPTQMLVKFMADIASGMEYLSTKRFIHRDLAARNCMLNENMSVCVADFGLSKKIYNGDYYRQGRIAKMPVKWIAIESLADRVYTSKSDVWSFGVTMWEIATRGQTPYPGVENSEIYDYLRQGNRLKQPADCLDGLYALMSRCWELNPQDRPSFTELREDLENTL
The test is described as follows: Assay 5 Ba/F3 cell survival assay, BCR-Axl. It counts as cell-based. To be noted: read-out: BCR-Axl Ba/F3 IC50, 48 h, CellTiter-Glo. The gist of the method: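 Ba/F3 cells dependent on BCR-AXL or TEL-MERTK fusion kinase (IL3-free; IL3 only for control lines) treated with compound 48 h at 37 °C, 0.25% DMSO. Viability by CellTiter-Glo luminescence; IC50 for half-maximal inhibition of survival from 4-parameter variable-slope fit.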
In general terms: In ATP-based viability assays light output follows the ATP content of the culture.

Structures are written as SMILES.

Turning to `CN1CCC(NC(=O)c2cc3c(Nc4ccc(NC(=O)c5cccn(-c6ccccc6)c5=O)cc4)ccnc3cn2)CC1` [Example 3, N-(1-methyl-4-piperidyl)-4-[4-[(2-oxo-1-phenyl-pyridine-3-carbonyl)amino]anilino]-1,7-naphthyridine-6-carboxamide], the IC50 in test [1] turned out to be 7 nM; in test [2], 45 nM. Consider `O=C(Nc1ccc(Oc2ccnc3cnc(N4CCNCC4)cc23)cc1)c1cccn(-c2ccc(F)cc2)c1=O` [Example 12.2, 1-(4-fluorophenyl)-2-oxo-N-[4-[(6-piperazin-1-yl-1,7-naphthyridin-4-yl)oxy]phenyl]pyridine-3-carboxamide], for which the IC50 in test [1] was determined as 28.8 nM; in test [2] it was 48 nM. Taken in the same sequence, the figures for `CC(C)n1cc(C(=O)Nc2ccc(Oc3ccnc4cnc(N5CCNCC5)cc34)cc2)c(=O)n(-c2ccccn2)c1=O` [Example 12.3, 1-isopropyl-2,4-dioxo-N-[4-[(6-piperazin-1-yl-1,7-naphthyridin-4-yl)oxy]phenyl]-3-(2-pyridyl)pyrimidine-5-carboxamide] were 80.8 nM and 64 nM. On the same counts, the results for `CC(C)n1cc(C(=O)Nc2ccc(Oc3ccnc4cnc(N5CCNCC5)cc34)cc2)c(=O)n(-c2ccc(F)cn2)c1=O` [Example 12.4, 3-(5-fluoro-2-pyridyl)-1-isopropyl-2,4-dioxo-N-[4-[(6-piperazin-1-yl-1,7-naphthyridin-4-yl)oxy]phenyl]pyrimidine-5-carboxamide] are 12.8 nM and 12 nM. For `CC(C)n1cc(C(=O)Nc2ccc(Oc3ccnc4cnc(N5CCNCC5)cc34)cc2)c(=O)c(-c2ccc(F)cc2)c1` [Example 13, 5-(4-Fluorophenyl)-1-isopropyl-4-oxo-N-[4-[(6-piperazin-1-yl-1,7-naphthyridin-4-yl)oxy]phenyl]pyridine-3-carboxamide], the IC50 in test [1] was 7.1 nM; in test [2], 13 nM. On the same counts, the results for `Cn1cc(C(=O)Nc2ccc(Oc3ccnc4cnc(N5CCNCC5)cc34)cc2)c(=O)c(-c2ccc(F)cc2)c1` [Example 13.1, 5-(4-fluorophenyl)-1-methyl-4-oxo-N-[4-[(6-piperazin-1-yl-1,7-naphthyridin-4-yl)oxy]phenyl]pyridine-3-carboxamide] are 15.9 nM and 22 nM. Taken in the same sequence, the figures for `C[C@H](CO)n1cc(C(=O)Nc2ccc(Oc3ccnc4cnc(C(=O)NC5CCN(C)CC5)cc34)cc2)c(=O)n(-c2ccc(F)cc2)c1=O` [Example 14, 4-[4-[[3-(4-Fluorophenyl)-2,4-dioxo-1-[(1R)-2-hydroxy-1-methyl-ethyl]pyrimidine-5-carbonyl]amino]phenoxy]-N-(1-methyl-4-piperidyl)-1,7-naphthyridine-6-carboxamide] were 31 nM and 7 nM. On the same counts, the results for `CN1CCC(NC(=O)c2cc3c(Oc4ccc(NC(=O)c5cn(C6CC6)c(=O)n(-c6ccc(F)cc6)c5=O)cc4)ccnc3cn2)CC1` [Example 15, 4-[4-[[1-Cyclopropyl-3-(4-fluorophenyl)-2,4-dioxo-pyrimidine-5-carbonyl]amino]phenoxy]-N-(1-methyl-4-piperidyl)-1,7-naphthyridine-6-carboxamide] are 33.2 nM and 14 nM. In the case of `O=C(Nc1ccc(Oc2ccnc3cnc(N4CCN(C5COC5)CC4)cc23)cn1)c1ccnn(-c2ccc(F)cc2)c1=O` [Example 20, 2-(4-fluorophenyl)-N-[5-[[6-[4-(oxetan-3-yl)piperazin-1-yl]-1,7-naphthyridin-4-yl]oxy]-2-pyridyl]-3-oxo-pyridazine-4-carboxamide], the IC50 in test [2] is 16 nM. Consider `CC(C)n1cc(C(=O)Nc2ccc(Oc3ccnc4cnc(C(=O)NC5CCN(C)CC5)cc34)cn2)c(=O)n(-c2ccc(F)cc2)c1=O` [Example 27.5, 4-[[6-[[3-(4-fluorophenyl)-1-isopropyl-2,4-dioxo-pyrimidine-5-carbonyl]amino]-3-pyridyl]oxy]-N-(1-methyl-4-piperidyl)-1,7-naphthyridine-6-carboxamide], for which the IC50 in test [1] was 14 nM; in test [2], 2 nM. On the same counts, the results for `Cc1cc(NC(=O)c2cccn(-c3ccccc3)c2=O)ccc1Oc1ccnc2cnc(N3CCNCC3)cc12` [Example 30, N-[3-methyl-4-[(6-piperazin-1-yl-1,7-naphthyridin-4-yl)oxy]phenyl]-2-oxo-1-phenyl-pyridine-3-carboxamide] are 339 nM and 470 nM.

Regarding `CN1CCC(NC(=O)c2cc3c(Oc4ccc(NC(=O)c5cccn(-c6ccccc6)c5=O)cc4F)ccnc3cn2)CC1` [Example 33, 4-[2-fluoro-4-[(2-oxo-1-phenyl-pyridine-3-carbonyl)amino]phenoxy]-N-(1-methyl-4-piperidyl)-1,7-naphthyridine-6-carboxamide], the results for the IC50 in test [1] and in test [2] were 63.8 nM and 30 nM, respectively. On the same counts, the results for `O=C(Nc1ccc(Oc2ccnc3cnc(N4CCNCC4)cc23)cc1)c1cn(C2CC2)c(=O)n(-c2ccc(F)cc2)c1=O` [Example 36, 1-cyclopropyl-3-(4-fluorophenyl)-2,4-dioxo-N-[4-[(6-piperazin-1-yl-1,7-naphthyridin-4-yl)oxy]phenyl]pyrimidine-5-carboxamide] are 25.7 nM and 34 nM. On the same counts, the results for `CN1CCC(NC(=O)c2cc3c(Oc4ccc(NC(=O)c5cn(C)cc(-c6ccc(F)cc6)c5=O)cc4)ccnc3cn2)CC1` [Example 37, 4-[4-[[5-(4-fluorophenyl)-1-methyl-4-oxo-pyridine-3-carbonyl]amino]phenoxy]-N-(1-methyl-4-piperidyl)-1,7-naphthyridine-6-carboxamide] are 33.5 nM and 17 nM.

Turning to `CC(C)n1cc(C(=O)Nc2ccc(Oc3ccnc4cnc(C(=O)NC5CCN(C)CC5)cc34)cc2)c(=O)c(-c2ccc(F)cc2)c1` [Example 37.1, 4-[4-[[5-(4-fluorophenyl)-1-isopropyl-4-oxo-pyridine-3-carbonyl]amino]phenoxy]-N-(1-methyl-4-piperidyl)-1,7-naphthyridine-6-carboxamide], the IC50 in test [1] amounted to 6.1 nM; in test [2], 2 nM.

The values are drawn from US20230203029A1 (priority 2020, published 2023).
